Holding throughout (format): cell-based
Experiment [1] deals with Pseudomonas aeruginosa TB-151. Kind of experiment: MIC by agar dilution method, Pseudomonas aeruginosa TB-151. The following applies: TB151, P. aeruginosa TB-151, tobramycin resistant strain, 10^6 CFU/ml, 37° C., 18 to 20 hours, read-out: Minimum Inhibitory Concentration (MIC). On the technique in general: In agar dilution the substance is mixed into plates at graded concentrations.

The subject of a further experiment is Proteus mirabilis TB-617. Kind of experiment: MIC by agar dilution method, Proteus mirabilis TB-617. The following applies: TB617, P. mirabilis TB-617 (not marked as resistant), 10^6 CFU/ml, 37° C., 18 to 20 hours, read-out: Minimum Inhibitory Concentration (MIC).
The next experiment concerns Proteus vulgaris TB-615. Kind of experiment: MIC by agar dilution method, Proteus vulgaris TB-615. The note with it: TB615, P. vulgaris TB-615, tobramycin resistant strain, 10^6 CFU/ml, 37° C., 18 to 20 hours, read-out: Minimum Inhibitory Concentration (MIC).

SMILES strings stand for the structures. Converted amounts (≈) assume the structure as drawn.

In the case of `NC[C@H]1O[C@H](O[C@H]2[C@H](O)[C@@H](O[C@H]3O[C@H](CO)[C@@H](O)[C@H](N)[C@H]3O)[C@H](N)C[C@@H]2N)[C@H](N)C[C@@H]1O` [TOB, tobramycin, reference compound], the MIC in experiment [1] was determined as 50 µg/mL (≈ 107 µM); in the experiment on Proteus mirabilis TB-617, 6.2 µg/mL (≈ 13.3 µM); in the experiment with Proteus vulgaris TB-615, 50 µg/mL (≈ 107 µM).
For the compound `NC[C@H]1O[C@H](O[C@H]2[C@H](O)[C@@H](O[C@H]3O[C@H](CO)[C@@H](O)[C@H](N)[C@H]3O)[C@H](NC3=NCC[C@@H]3O)C[C@@H]2N)[C@H](N)C[C@@H]1O` [[A], 1N-[(S)(-)-3-hydroxy-1-pyrrolin-2-yl]tobramycin], the MIC stood at 25 µg/mL (≈ 45.4 µM) in experiment [1], 3.1 µg/mL (≈ 5.63 µM) in the experiment with Proteus mirabilis TB-617 and 25 µg/mL (≈ 45.4 µM) with Proteus vulgaris TB-615.
Consider `NC[C@H]1O[C@H](O[C@H]2[C@H](O)[C@@H](O[C@H]3O[C@H](CO)[C@@H](O)[C@H](N)[C@H]3O)[C@H](NC3=NCCC[C@@H]3O)C[C@@H]2N)[C@H](N)C[C@@H]1O` [[B], 1N-[(S)(-)-3-hydroxy-3,4,5,6-tetrahydropyridin-2-yl]tobramycin], for which the MIC stood at 25 µg/mL (≈ 44.3 µM) in experiment [1], 3.1 µg/mL (≈ 5.49 µM) with Proteus mirabilis TB-617 and 25 µg/mL (≈ 44.3 µM) in the experiment on Proteus vulgaris TB-615.

Source of the values: US4248865A, “Novel aminoglycoside derivatives” (Shionogi & Co., Ltd., priority 1978, dated 1981).
